Literature values in US20120259389A1, “TREATMENT OF POSTPRANDIAL HYPERGLYCEMIA BY GASTRIC ELECTRICAL STIMULATION” (priority 2009, published 2012).

Test system: ZDF rats
Settings: Type II diabetic ZDF rats; 300 mg/kg/day for 28 days; reported by Uhles et al. 2009

CN(C)C(=N)N=C(N)N [Metformin]
reduction in mean change in blood glucose AUC: 21%
